Source: patent US20200247855A1, “THERAPY AND DIAGNOSTICS” (OXFORD UNIVERSITY INNOVATION LIMITED, priority 2017, published 2020)
No end group written: not given here.

What was measured:
CCL18 = molecular target: T1, CCL18 (Homo sapiens, UniProt P55774); assay: Fluorescence polarisation (anisotropy) assay; type: binding; conditions: fluorescence polarisation displacement assay
T1 construct: purchased Peprotech
T1 sequence (P55774 21-89): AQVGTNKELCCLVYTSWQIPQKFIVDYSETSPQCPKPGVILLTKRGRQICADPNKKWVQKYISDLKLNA
Description: (§1) FIG. 14(B). Fluorescence polarisation assay showing binding of chemokines to P672_PEP-FITC. The measured fluorescence anisotropy (y-axis) of P672_PEP-FITC (50 nM) following binding to a fixed dose (1 μM)) of CCL7, CCL8, CCL18 and CXCL1 (negative control). […] Statistical significance was determined using one-way ANOVA with Sidak's correction for multiple comparisons using Graph Pad Prism 6. **=p<0.005, ****=P<0.00005, ns=not significant.
(§2) FIG. 15(C). Displacement of P672_PEP-FITC from CCL18 by P672_PEP. In each case 100 μM (++) or […] (+) of P672_PEP was incubated with P672_PEP-FITC (50 nM)/chemokine (1 μM CCL7 and CCL18; 500 nM CCL8) and the resulting anisotropy measured. A peptide with the P672_PEP sequence scrambled ([…]) served as a negative control (P672_PEP_SCRAM; […]). Experiment carried out in triplicate where each data point is the average of one experiment carried out in technical triplicate. Mean with SEM shown and statistical significance was determined using one-way ANOVA with Sidak's correction for multiple comparisons using Graph Pad Prism 6. *=p<0.05, ***=p<0.0005, ****=P<0.00005, ns=not significant.
(§3) Fluorescence polarization assays were performed using a Clariostar (BMG Tech) plate reader with the supplied FITC excitation and emission filters using 96 half area well plates (Corning). The buffer used (FP assay buffer) was 50 mM HEPES, 150 mM NaCl, 0.1% BSA, 0.002% TWEEN-20, 0.2% DMSO, pH 7.4 and the final volume in each well was 30 μL. Polarization was converted to anisotropy using the equation A=(2*P)/(3−P) where P is polarization and A is anisotropy. For each peptide tested the gain was set to 35 mP and adjusted to a well containing fluorescent peptide only. The polarization of the emitted light in the FITC emission channel was then determined. Experiments were performed as two technical and three biological replicates. Screening of P672 peptide fragments was achieved through incubation of each peptide (50 nM) with 1 μM CCL8 (Peprotech) for 30 minutes in FP assay buffer and the resulting anisotropy of the emitted light determined as above. The chemokine cross binding screen was performed by incubating 1 μM chemokine (Peprotech) with 50 nM BK1.1FITC for half an hour in FP assay buffer and the resulting anisotropy of the emitted light determined as above. To monitor BK1.1FITC Ala mutants of binding to CCL8, 50 nM labelled peptide was incubated with varying concentrations of recombinant CCL8 (0-25 μM, final) in 30 μL FP assay buffer for 30 minutes and the resulting anisotropy of the emitted light determined as above. The anisotropy was plotted as a function of CCL8 concentration and fitted to the equation: Y=Bmax*X/(KD+X)+NS*X+Background, where Y is the measured anisotropy, X is the concentration of CCL8 added, Bmax is the maximum binding, KD is the equilibrium dissociation constant, NS is the slope of the nonlinear regression and Background is the anisotropy when no CCL8 is present, in Graph Pad Prism. Displacement assays were carried out with CCL7, CCL8, and CCL18 (Peprotech, 1 μM). […] For all FP assays, the experiments were carried out as two technical and three biological replicates.

CCL7 = molecular target: T2, CCL7 (Homo sapiens, UniProt P80098); assay: Fluorescence polarisation (anisotropy) assay; type: binding; conditions: fluorescence polarisation displacement assay
T2 construct: purchased Peprotech
T2 sequence (P80098 24-99): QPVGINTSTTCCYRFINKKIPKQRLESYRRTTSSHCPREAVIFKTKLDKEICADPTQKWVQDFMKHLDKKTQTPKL
Description: as §1, §2, §3

EDEDYEDFFKPVTAYF-NH2 [BK1.1]
Displacement of FITC-labelled peptide from CCL18 by unlabelled peptide (CCL18): indicate its binding
Displacement of FITC-labelled peptide from CCL18 by unlabelled peptide (CCL18; listed as P672_PEP): able to displace labelled peptide bound to chemokine
Displacement of FITC-labelled peptide from CCL7 by unlabelled peptide (CCL7): indicate its binding
Displacement of FITC-labelled peptide from CCL7 by unlabelled peptide (CCL7; listed as P672_PEP): able to displace labelled peptide bound to chemokine
